Measurements published in patent US20240279278A1, “NMU RECEPTOR 2 AGONISTS” (Boehringer Ingelheim International GmbH, priority 2023, published 2024).
Residues, ends and D or L forms follow the SMILES beside them.

Tests used:
[1] = Effect on acute food intake in normal NMRI mice; type: in vivo; settings: male NMRI mice, single subcutaneous dose 100 nmol/kg, normalized to vehicle group
Procedure: Example 9: Pharmacodynamics Effect on Acute Food Intake in Normal NMRI Mice
Male NMRI mice were obtained from Charles River (Charles River, Research Models & Services Germany GmbH) or from JanVier (JanVier Labs, France) at 3 weeks of age. The animals were group housed 4 mice pr. cage under a 12/12 hours dark-light cycle, light off at 3 pm. Room temperature was controlled to 21° C.±1° C., with 60%±20% humidity. Animals had ad libitum access to regular rodent chow (KLIBA Nafag 3430 or Altromin 1324, Brogaarden, Denmark) and tap water. Animals were transferred at 6 weeks of age, 5-7 days before the start of the study to a real-time food intake monitoring system, HM-2 system (MBRose, Denmark), to allow acclimatization to experimental conditions. As the animals were uniquely identified with microchips, each individual animal was identified by its microchip upon entry and exit from the food channel. Randomization of the mice for each study group (n=8-11) was based on body weight measured the day before the start of the study. A vehicle-treated (50 mM acetate buffer pH 7.4 with 3.5% mannitol) group was included in each experiment. Six hours before the start of the night phase animals were fasted. One hour before the dark phase animals were dosed once subcutaneously with test peptide. Food intake was reported hourly for a period of 24 hours. The food intake of the treated groups was normalized (in %) to the average food intake of the group receiving vehicle (table 10). Statistical significance was evaluated using One-way analysis of variance with Bonferroni's multiple comparison test. P<0.05 was considered statistically significant.

in vivo = experiment: in vivo; parameters: species or system NMRI mice; settings: male, NMRI, mouse, iv
Procedure: Example 5: Pharmacokinetics Intravenous (iv) PK in Mouse Pharmacokinetic parameters of the test compounds were determined after intravenous administration to Naval Medical Research Institute (NMRI) mice. Male NMRI mice were obtained either from Charles River (Germany) or from Janvier (France) weighing approximately 30 g to 40 g. Mice were housed in standard cages with light cycle of 12-hour dark and 12-hour light. Standardized food and water were offered ad libitum to the animals during the whole experimental period. The respective peptide was dissolved in 50 mM phosphate buffer (pH 7.4) containing 3.5% mannitol. Intravenous doses of 30 nmol/kg were given via a tail vein. Serial blood samples were collected from the vena saphena into tubes containing EDTA as anticoagulant at different time points up to 48 hours post dosing. After centrifugation for approximately 5 minutes, plasma samples were transferred to 96-well Polymerase Chain Reaction (PCR) plates, immediately frozen and kept at approximately −20° C. until analyzed for plasma concentration by liquid chromatography mass spectrometry (LC-MS/MS). Individual plasma concentration-time profiles were analyzed by a non-compartmental approach, and the resulting pharmacokinetic parameters were determined.

SMILES | Acute Food Intake 24 h [1] [% vehicle] | MRT (in vivo) [h] | MRT (in vivo; 30 nmol/kg) [h]
CCCC[C@H](NC(=O)[C@H](CC(C)C)N(C)C(=O)[C@H](Cc1ccccc1)NC(=O)[C@H](Cc1ccc(O)cc1)NC(=O)CN1CCN(CCNC(=O)CN(C)C(=O)CN(C)C(=O)CN(C)C(=O)CN(C)C(=O)CN(C)C(=O)CN(C)C(=O)CN(C)C(=O)CN(C)C(=O)CN(C)C(=O)CN(C)C(=O)CN(C)C(=O)CN(C)C(=O)CN(C)C(=O)CN(C)C(=O)CN(C)C(=O)CC[C@H](NC(=O)CC[C@H](NC(=O)CC[C@H](NC(=O)CCCCCCCCCCCCCCCCCCC(=O)O)C(=O)O)C(=O)O)C(=O)O)CC1)C(=O)N[C@@H](CCCN)C(=O)N1CCC[C@H]1C(=O)N[C@@H](CCCNC(=N)N)C(=O)NCC(N)=O [Compound 1, C20DA-gGlu3-Sar15-AEPipAc-Tyr-Phe-NMeLeu-Nle-Orn-Pro-Arg-Gly-NH2] (HELM PEPTIDE1{[O=C(O)CCCCCCCCCCCCCCCCCCC(=O)[*:2]].[gGlu].[gGlu].[gGlu].[Sar].[Sar].[Sar].[Sar].[Sar].[Sar].[Sar].[Sar].[Sar].[Sar].[Sar].[Sar].[Sar].[Sar].[Sar].[O=C(CN1CCN(CCN[*:1])CC1)[*:2]].Y.F.[meL].[Nle].[Orn].P.R.G.[am]}$$$$V2.0) | 31 | 38.1 | 38.1
CCCC[C@H](NC(=O)[C@H](CC(C)C)N(C)C(=O)[C@H](Cc1ccccc1)NC(=O)[C@H](Cc1ccc(O)cc1)NC(=O)CN1CCN(CCNC(=O)CN(C)C(=O)CN(C)C(=O)CN(C)C(=O)CN(C)C(=O)CN(C)C(=O)CN(C)C(=O)CN(C)C(=O)CN(C)C(=O)CN(C)C(=O)CN(C)C(=O)CN(C)C(=O)CN(C)C(=O)CN(C)C(=O)CN(C)C(=O)CN(C)C(=O)CC[C@H](NC(=O)CC[C@H](NC(=O)CC[C@H](NC(=O)CCCCCCCCCCCCCCCCC(=O)O)C(=O)O)C(=O)O)C(=O)O)CC1)C(=O)N[C@@H](CCCNC(=N)N)C(=O)N1CCC[C@H]1C(=O)N[C@@H](CCCNC(=N)N)C(=O)NCC(N)=O [Compound 7, C18DA-gGlu3-Sar15-AEPipAc-Tyr-Phe-NMeLeu-Nle-Arg-Pro-Arg-Gly-NH2] (HELM PEPTIDE1{[O=C(O)CCCCCCCCCCCCCCCCC(=O)[*:2]].[gGlu].[gGlu].[gGlu].[Sar].[Sar].[Sar].[Sar].[Sar].[Sar].[Sar].[Sar].[Sar].[Sar].[Sar].[Sar].[Sar].[Sar].[Sar].[O=C(CN1CCN(CCN[*:1])CC1)[*:2]].Y.F.[meL].[Nle].R.P.R.G.[am]}$$$$V2.0) | 46 | 17.4 | 17.4
CCCC[C@H](NC(=O)[C@H](CC(C)C)N(C)C(=O)[C@H](Cc1ccccc1)NC(=O)[C@H](Cc1ccc(O)cc1)NC(=O)CN1CCN(CCNC(=O)CN(C)C(=O)CN(C)C(=O)CN(C)C(=O)CN(C)C(=O)CN(C)C(=O)CN(C)C(=O)CN(C)C(=O)CN(C)C(=O)CN(C)C(=O)CN(C)C(=O)CN(C)C(=O)CN(C)C(=O)CN(C)C(=O)CN(C)C(=O)CN(C)C(=O)CC[C@H](NC(=O)CC[C@H](NC(=O)CC[C@H](NC(=O)CCCCCCCCCCCCCCCCC(=O)O)C(=O)O)C(=O)O)C(=O)O)CC1)C(=O)N[C@@H](CCN)C(=O)N1CCC[C@H]1C(=O)N[C@@H](CCCNC(=N)N)C(=O)NCC(N)=O [Compound 26, C18DA-gGlu3-Sar15-AEPipAc-Tyr-Phe-NMeLeu-Nle-Dbu-Pro-Arg-Gly-NH2] (HELM PEPTIDE1{[O=C(O)CCCCCCCCCCCCCCCCC(=O)[*:2]].[gGlu].[gGlu].[gGlu].[Sar].[Sar].[Sar].[Sar].[Sar].[Sar].[Sar].[Sar].[Sar].[Sar].[Sar].[Sar].[Sar].[Sar].[Sar].[O=C(CN1CCN(CCN[*:1])CC1)[*:2]].Y.F.[meL].[Nle].[Dab].P.R.G.[am]}$$$$V2.0) | 37 | – | 12.4
CCCC[C@H](NC(=O)[C@H](CC(C)C)N(C)C(=O)[C@H](Cc1ccccc1)NC(=O)[C@H](Cc1ccc(O)cc1)NC(=O)CN1CCN(CCNC(=O)CN(C)C(=O)CN(C)C(=O)CN(C)C(=O)CN(C)C(=O)CN(C)C(=O)CN(C)C(=O)CN(C)C(=O)CN(C)C(=O)CN(C)C(=O)CN(C)C(=O)CN(C)C(=O)CN(C)C(=O)CN(C)C(=O)CN(C)C(=O)CN(C)C(=O)CC[C@H](NC(=O)CC[C@H](NC(=O)CC[C@H](NC(=O)CCCCCCCCCCCCCCCCCCC(=O)O)C(=O)O)C(=O)O)C(=O)O)CC1)C(=O)N[C@@H](CCN)C(=O)N1CCC[C@H]1C(=O)N[C@@H](CCCNC(=N)N)C(=O)NCC(N)=O [Compound 42, C20DA-gGlu3-Sar15-AEPipAc-Tyr-Phe-NMeLeu-Nle-Dbu-Pro-Arg-Gly-NH2] (HELM PEPTIDE1{[O=C(O)CCCCCCCCCCCCCCCCCCC(=O)[*:2]].[gGlu].[gGlu].[gGlu].[Sar].[Sar].[Sar].[Sar].[Sar].[Sar].[Sar].[Sar].[Sar].[Sar].[Sar].[Sar].[Sar].[Sar].[Sar].[O=C(CN1CCN(CCN[*:1])CC1)[*:2]].Y.F.[meL].[Nle].[Dab].P.R.G.[am]}$$$$V2.0) | 41 | – | 31.2
CCCC[C@H](NC(=O)[C@H](CC(C)C)N(C)C(=O)[C@H](Cc1ccccc1)NC(=O)[C@H](Cc1ccc(O)cc1)NC(=O)CN1CCN(CCNC(=O)CN(C)C(=O)CN(C)C(=O)CN(C)C(=O)CN(C)C(=O)CN(C)C(=O)CN(C)C(=O)CN(C)C(=O)CN(C)C(=O)CN(C)C(=O)CN(C)C(=O)CN(C)C(=O)CN(C)C(=O)CN(C)C(=O)CN(C)C(=O)CN(C)C(=O)CC[C@H](NC(=O)CC[C@H](NC(=O)CC[C@H](NC(=O)CCCCCCCCCCCCCCCCCCC(=O)O)C(=O)O)C(=O)O)C(=O)O)CC1)C(=O)N[C@@H](CCN)C(=O)N(C)[C@@H](C)C(=O)N[C@@H](CCCNC(=N)N)C(=O)NCC(N)=O [Compound 43, C20DA-gGlu3-Sar15-AEPipAc-Tyr-Phe-NMeLeu-Nle-Dbu-NMeAla-Arg-Gly-NH2] (HELM PEPTIDE1{[O=C(O)CCCCCCCCCCCCCCCCCCC(=O)[*:2]].[gGlu].[gGlu].[gGlu].[Sar].[Sar].[Sar].[Sar].[Sar].[Sar].[Sar].[Sar].[Sar].[Sar].[Sar].[Sar].[Sar].[Sar].[Sar].[O=C(CN1CCN(CCN[*:1])CC1)[*:2]].Y.F.[meL].[Nle].[Dab].[meA].R.G.[am]}$$$$V2.0) | 28 | – | 37.7
